{"source": "patent US6511804B1", "about": "“Selective assay for determining the identity of live microorganisms in a mixed culture” (priority 1998, dated 2003)", "key": {"E. coli": {"system": "E. coli", "assay_type": "cell-based"}, "P. mirabilis": {"system": "P. mirabilis", "experiment": "Ampicillin resistance of the P. mirabilis strain", "assay_type": "cell-based, Proteus mirabilis", "settings": "P. mirabilis strain used in these studies"}, "E. coli (C600) [1]": {"system": "E. coli (C600)", "experiment": "Ampicillin sensitivity of E. coli C600 as stated", "assay_type": "cell-based"}, "E. coli (C600) [2]": {"system": "E. coli (C600)", "experiment": "Mixed culture P. mirabilis:E. coli 50:1 with ampicillin, BrdU immunocapture and FlaA PCR", "assay_type": "cell-based", "settings": "50:1 P. mirabilis:E. coli; L-broth with 5, 10, or 20 μg/ml ampicillin"}, "E. coli strain W3110": {"system": "E. coli strain W3110", "experiment": "Growth curves of E. coli strain W3110 in L-broth with antibiotic or BrdU", "assay_type": "cell-based", "settings": "FIG. 3"}, "[3]": {"system": "Porphyromonas gingivalis (ATCC No. 33277)", "experiment": "BrdU immunocapture/PCR antibiotic sensitivity of Porphyromonas gingivalis", "settings": "anaerobic culture; 2 hours antibiotic then 2 hours BrdU; FIG. 7"}, "[4]": {"system": "T. denticola (ATCC number 35405)", "experiment": "BrdU immunocapture/PCR antibiotic sensitivity of Treponema denticola", "assay_type": "cell-based", "settings": "FIG. 9; for BrdU incorporation / immunocapture PCR signal: T. denticola; for sensitivity or resistance of T. denticola: anaerobic culture, no negative immunocapture control", "description": "Treponema denticola was also studied using the invention. In these studies, a culture of T. denticola (ATCC number 35405) was inoculated into fresh media and grown anaerobically for 1 day in NOS media (ATCC media formulation 1494). The cultures were grown as in Part A of this Example, except that the cultures were incubated for about 8 hours prior to the addition of BrdU, they were incubated overnight after the addition of BrdU, and the samples were analyzed the next day. The PCR was conducted in the manner described above, except that a GroEL primer set was not available and a primer set for the FlgE gene (endoflagellar subunit protein) referred to FlgE001 and FlgE006 was substituted. These primers were expected to give rise to a 542 bp PCR fragment."}, "[5]": {"system": "H. actinomycetemcomitans (ATCC No. 43718)", "experiment": "BrdU immunocapture/PCR antibiotic sensitivity of H. actinomycetemcomitans", "assay_type": "cell-based, Haemophilus actinomycetemcomitans", "settings": "anaerobic culture; FIG. 8", "description": "H. actinomycetemcomitans is reported to be a human pathogen, and has been implicated in juvenile periodontitis. In these studies, a culture of H. actinomycetemcomitans (ATCC No. 43718; previously known as Actinobacillus actinomycetemcomitans) was grown to saturation under anaerobic conditions as in part A, above, except that hemin was not added to the medium. The culture was diluted 1:10 into fresh media, and grown for a further 4 hours under anaerobic conditions. At this point, the culture was divided into aliquots and subjected to the same testing protocol as was employed in part A of this Example, except that after the BrdU was added, the 2 hour incubation was followed for convenience by overnight storage under refrigeration at 4° C. The next day, the aliquoted cultures were lysed by the NaOH lysis protocol described above, PCR was performed, and the capture probe set forth in Table 1 for this organism was employed."}, "E. coli strain NK5830 [6]": {"system": "E. coli strain NK5830", "assay_type": "cell-based", "settings": "antibiotic at final concentration 100 μg/ml, FIG. 3"}, "E. coli strain NK5830 [7]": {"system": "E. coli strain NK5830", "experiment": "BrdU immunocapture/PCR antibiotic sensitivity assay, strain NK5830", "settings": "antibiotic 100 μg/ml, FIG. 4"}}, "note": "Read-outs that look alike come from different tables or passages of the source."}
{"compound": "CC1(C)S[C@@H]2[C@H](NC(=O)[C@H](N)c3ccccc3)C(=O)N2[C@H]1C(=O)O", "note": "[Ampicillin]", "values": [{"measurement": "detectable BrdU compared to the control", "setting": "E. coli; E. coli strain W3110", "result": "lack of detectable BrdU compared to the control"}, {"measurement": "effect on cells (lysis)", "setting": "E. coli; E. coli strain W3110", "result": "lysed"}, {"measurement": "ampicillin concentration to which the strain is resistant", "setting": "P. mirabilis", "result": "over 400 μg/ml"}, {"measurement": "sensitivity to ampicillin", "setting": "E. coli (C600) [1]", "result": "extremely sensitive"}, {"measurement": "PCR products obtained (E. coli 1 kb / P. mirabilis 800 bp)", "setting": "E. coli (C600) [2]", "result": "only the P. mirabilis PCR product"}]}
{"compound": "O=c1[nH]c(=O)n([C@H]2C[C@H](O)[C@@H](CO)O2)cc1Br", "note": "[BrdU, 5-bromo-2′-deoxyuridine]", "values": [{"measurement": "growth profile after addition of BrdU", "setting": "E. coli strain W3110; BrdU added at 2.5 hours", "result": "did not change the growth profile"}]}
{"compound": "O=C(N[C@H](CO)[C@H](O)c1ccc([N+](=O)[O-])cc1)C(Cl)Cl", "note": "[Chloramphenicol]", "values": [{"measurement": "effect on the growth of E. coli", "setting": "E. coli", "result": "significantly reduced growth"}]}
{"compound": "[H]/N=C(/N)N[C@H]1[C@H](O)[C@@H](O)[C@H](O[C@@H]2O[C@@H](C)[C@](O)(C=O)[C@H]2O[C@@H]2O[C@@H](CO)[C@H](O)[C@@H](O)[C@@H]2NC)[C@@H](N/C(N)=N\\[H])[C@@H]1O", "note": "[Streptomycin]", "values": [{"measurement": "effect on the growth of E. coli", "setting": "E. coli", "result": "little or no effect"}]}
{"compound": "Cc1ncc([N+](=O)[O-])n1CCO", "note": "[metronidazole]", "values": [{"measurement": "sensitivity or resistance of P. gingivalis", "setting": "[3]", "result": "sensitive"}, {"measurement": "BrdU incorporation / immunocapture PCR signal", "setting": "[4]", "result": "level of BrdU incorporation is at background"}, {"measurement": "sensitivity or resistance of T. denticola", "setting": "[4]", "result": "sensitive"}, {"measurement": "sensitivity or resistance of H. actinomycetemcomitans", "setting": "[5]", "result": "resistance"}]}
{"compound": "CCn1cc(C(=O)O)c(=O)c2ccc(C)nc21", "note": "[nalidixic acid]", "values": [{"measurement": "effect on the growth of E. coli", "setting": "E. coli", "result": "greatest effect"}, {"measurement": "sensitivity or resistance of P. gingivalis", "setting": "[3]", "result": "resistant"}, {"measurement": "growth (growth curve)", "setting": "E. coli strain W3110; antibiotic at final concentration 100 μg/ml", "result": "inhibited growth"}, {"measurement": "growth (growth curve)", "setting": "E. coli strain NK5830 [6]", "result": "did not cause any growth inhibition"}, {"measurement": "immunocapture/PCR signal (BrdU-labeled DNA, gel)", "setting": "E. coli strain NK5830 [7]", "result": "strong positive signal"}, {"measurement": "BrdU incorporation / immunocapture PCR signal", "setting": "[4]", "result": "equivalent to the positive control"}, {"measurement": "sensitivity or resistance of T. denticola", "setting": "[4]", "result": "resistant"}, {"measurement": "sensitivity or resistance of H. actinomycetemcomitans", "setting": "[5]", "result": "sensitivity"}]}
{"compound": "gentamycin", "values": [{"measurement": "effect on the growth of E. coli", "setting": "E. coli; compared to controls grown in the absence of the antibiotic", "result": "greatest effect"}]}
